According to the NIST ThermoML archive (doi:10.1016/j.jct.2011.08.016):

Assay: xn = mol fraction of the nth substance listed
Settings: Liquid, Vibrating tube method

CCCCCCCCCC [decane] + CCCCCCCC
Settings	mass density [kg/m3]
313.14 K, 1000 kPa, x2 = 0.0616	714.37
313.14 K, 2000 kPa, x2 = 0.0616	715.15
313.14 K, 3000 kPa, x2 = 0.0616	716
313.14 K, 4000 kPa, x2 = 0.0616	716.89
313.14 K, 5000 kPa, x2 = 0.0616	717.71
313.14 K, 6000 kPa, x2 = 0.0616	718.51
313.14 K, 7000 kPa, x2 = 0.0616	719.36
313.14 K, 8000 kPa, x2 = 0.0616	720.16
313.14 K, 9000 kPa, x2 = 0.0616	720.97
313.14 K, 10000 kPa, x2 = 0.0616	721.75
313.14 K, 10990 kPa, x2 = 0.0616	722.52
313.14 K, 12000 kPa, x2 = 0.0616	723.27
313.14 K, 13000 kPa, x2 = 0.0616	724.05
313.14 K, 14000 kPa, x2 = 0.0616	724.81
313.14 K, 15000 kPa, x2 = 0.0616	725.5
313.14 K, 16000 kPa, x2 = 0.0616	726.26
313.14 K, 17000 kPa, x2 = 0.0616	726.99
313.14 K, 18000 kPa, x2 = 0.0616	727.69
313.14 K, 19000 kPa, x2 = 0.0616	728.37
313.14 K, 20000 kPa, x2 = 0.0616	729.06
313.14 K, 21000 kPa, x2 = 0.0616	729.73
313.14 K, 22000 kPa, x2 = 0.0616	730.38
313.14 K, 23000 kPa, x2 = 0.0616	731.03
313.14 K, 24000 kPa, x2 = 0.0616	731.6
313.14 K, 25000 kPa, x2 = 0.0616	732.22
313.17 K, 1000 kPa, x2 = 0.2801	709.26
313.17 K, 1000 kPa, x2 = 0.9623	688.85
313.17 K, 2000 kPa, x2 = 0.2801	710.07
313.17 K, 2000 kPa, x2 = 0.9623	689.77
313.17 K, 3000 kPa, x2 = 0.2801	710.9
313.17 K, 3000 kPa, x2 = 0.9623	690.64
313.17 K, 4000 kPa, x2 = 0.2801	711.79
313.17 K, 4000 kPa, x2 = 0.9623	691.53
313.17 K, 5000 kPa, x2 = 0.2801	712.65
313.17 K, 5000 kPa, x2 = 0.9623	692.37
313.17 K, 6000 kPa, x2 = 0.2801	713.47
313.17 K, 6000 kPa, x2 = 0.9623	693.31
313.17 K, 7000 kPa, x2 = 0.2801	714.32
313.17 K, 7000 kPa, x2 = 0.9623	694.24
313.17 K, 8000 kPa, x2 = 0.2801	715.17
313.17 K, 8000 kPa, x2 = 0.9623	695.11
313.17 K, 9000 kPa, x2 = 0.2801	715.99
313.17 K, 9000 kPa, x2 = 0.9623	696.04
313.17 K, 10000 kPa, x2 = 0.2801	716.81
313.17 K, 10000 kPa, x2 = 0.9623	696.93
313.17 K, 10990 kPa, x2 = 0.2801	717.63
313.17 K, 10990 kPa, x2 = 0.9623	697.85
313.17 K, 12000 kPa, x2 = 0.2801	718.42
313.17 K, 12000 kPa, x2 = 0.9623	698.72
313.17 K, 13000 kPa, x2 = 0.2801	719.2
313.17 K, 13000 kPa, x2 = 0.9623	699.57
313.17 K, 14000 kPa, x2 = 0.2801	719.98
313.17 K, 14000 kPa, x2 = 0.9623	700.45
313.17 K, 15000 kPa, x2 = 0.2801	720.74
313.17 K, 15000 kPa, x2 = 0.9623	701.33
313.17 K, 16000 kPa, x2 = 0.2801	721.5
313.17 K, 16000 kPa, x2 = 0.9623	702.18
313.17 K, 17000 kPa, x2 = 0.2801	722.23
313.17 K, 17000 kPa, x2 = 0.9623	703
313.17 K, 18000 kPa, x2 = 0.2801	723
313.17 K, 18000 kPa, x2 = 0.9623	703.81
313.17 K, 19000 kPa, x2 = 0.2801	723.67
313.17 K, 19000 kPa, x2 = 0.9623	704.6
313.17 K, 20000 kPa, x2 = 0.2801	724.35
313.17 K, 20000 kPa, x2 = 0.9623	705.32
313.17 K, 21000 kPa, x2 = 0.2801	725.02
313.17 K, 21000 kPa, x2 = 0.9623	706.06
313.17 K, 22000 kPa, x2 = 0.2801	725.7
313.17 K, 22000 kPa, x2 = 0.9623	706.8
313.17 K, 23000 kPa, x2 = 0.2801	726.3
313.17 K, 23000 kPa, x2 = 0.9623	707.48
313.17 K, 24000 kPa, x2 = 0.2801	726.9
313.17 K, 24000 kPa, x2 = 0.9623	708.16
313.17 K, 25000 kPa, x2 = 0.2801	727.55
313.17 K, 25000 kPa, x2 = 0.9623	708.78
313.19 K, 1000 kPa, x2 = 0.5314	702.8
313.19 K, 1000 kPa, x2 = 0.7736	695.32
313.19 K, 2000 kPa, x2 = 0.5314	703.69
313.19 K, 2000 kPa, x2 = 0.7736	696.27
313.19 K, 3000 kPa, x2 = 0.5314	704.53
313.19 K, 3000 kPa, x2 = 0.7736	697.14
313.19 K, 4000 kPa, x2 = 0.5314	705.35
313.19 K, 4000 kPa, x2 = 0.7736	698.01
313.19 K, 5000 kPa, x2 = 0.5314	706.16
313.19 K, 5000 kPa, x2 = 0.7736	698.89
313.19 K, 6000 kPa, x2 = 0.5314	707.05
313.19 K, 6000 kPa, x2 = 0.7736	699.8
313.19 K, 7000 kPa, x2 = 0.5314	707.93
313.19 K, 7000 kPa, x2 = 0.7736	700.67
313.19 K, 8000 kPa, x2 = 0.5314	708.77
313.19 K, 8000 kPa, x2 = 0.7736	701.55
313.19 K, 9000 kPa, x2 = 0.5314	709.59
313.19 K, 9000 kPa, x2 = 0.7736	702.44
